Molecules are shown by their SMILES. In brackets after ≈: the same amount, converted by molar mass. Entries after “also recorded” stand apart in the source; their conditions may differ. Read-outs that look alike come from different tables or passages of the source.

Data set [1] in a line: PAMPA BBB permeability assay. It counts as in vitro ADME. The settings on record: for Papp at 4 h: PAMPA. On the procedure:
(§1) In vitro gastrointestinal (GIT) and blood–brain barrier (BBB) permeability was studied using the PAMPA (Parallel Artificial Membrane Permeability Assay) model. The sandwich consists of two 96-well microfilter plates. The PAMPA system contains two chambers: the donor at the bottom and the acceptor chamber at the top. The chambers are separated by a 120 μm thick microfilter disc coated with a 20% (w/v) dodecane solution of a lecithin mixture (Pion, Inc.). The analyzed samples were prepared by dissolving an excess amount of pure compound and systems in water. In addition, the pure compound was dissolved in DMSO. The donor solution was adjusted to pH ≈ 6.8 for GIT application and to pH ≈ 7.4 for BBB application using 0.5 M NaOH. The plates were combined and then incubated for 4 h for both models in a humidity-saturated atmosphere with the temperature set at 37 °C. The apparent permeability coefficient (Papp) was calculated according to the following equation: Papp=−ln(1−CA/Cequilibrium)/S×(1/VD+1/VA)×t where VD is donor volume; VA is acceptor volume; Cequilibrium is equilibrium concentration, Cequilibrium=CD×VD+CA×VA/VD+VA; S is membrane area; and t is incubation time (in seconds).
(The PAMPA barrier holds no transporters, so it reflects passive diffusion.)

The target in a further data set is T1, AChE (Homo sapiens, UniProt P22303).
T1 construct: purchased Sigma Aldrich, Germany
T1 sequence (P22303 32-614): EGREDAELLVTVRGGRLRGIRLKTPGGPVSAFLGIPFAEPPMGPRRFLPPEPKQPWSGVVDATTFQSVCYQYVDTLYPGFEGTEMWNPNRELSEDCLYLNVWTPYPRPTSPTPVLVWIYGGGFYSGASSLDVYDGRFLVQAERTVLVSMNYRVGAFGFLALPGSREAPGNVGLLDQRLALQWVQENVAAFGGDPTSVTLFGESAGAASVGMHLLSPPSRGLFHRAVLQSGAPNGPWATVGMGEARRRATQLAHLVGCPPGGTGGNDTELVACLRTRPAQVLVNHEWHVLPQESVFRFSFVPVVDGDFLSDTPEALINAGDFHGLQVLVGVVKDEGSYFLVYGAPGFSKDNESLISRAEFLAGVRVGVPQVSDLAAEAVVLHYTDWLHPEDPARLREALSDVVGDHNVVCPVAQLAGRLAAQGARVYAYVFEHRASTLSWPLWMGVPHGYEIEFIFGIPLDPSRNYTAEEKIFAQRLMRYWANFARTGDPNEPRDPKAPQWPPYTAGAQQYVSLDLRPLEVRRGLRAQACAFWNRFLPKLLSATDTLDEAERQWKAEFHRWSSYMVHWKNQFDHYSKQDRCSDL
In words: Acetylcholinesterase (AChE) inhibition assay. The data set is classed as biochemical. As to the method: (§2) To assess the activity of Hed, Het, and systems, the spectrometric method according to the outlined procedure was applied. A Multiskan GO 1510 (Thermo Fisher Scientific, Vantaa, Finland) plate reader was used for measurements of 96-well plates of the maximum volume of 300 μL. The hydrolysis of acetylthiocholine/butyrylthiocholine caused a color change. The absorbance of the enzymes was measured at a wavelength of 412 nm, 10 min after pipetting on a microplate. The reaction mixture containing 0.1 mL of 0.3 mM 5,5-dithio-bis-(2-nitrobenzoic acid) (DTNB, Sigma Aldrich, Germany), 10 mM NaCl and 2 mM MgCl2·6H2O solution, 0.575 mL 50 mM Tris-HCl buffer (pH = 8.0), 25 µL of 0.28 units/mL AChE/BChE (Sigma Aldrich, Germany), and 0.2 mL of the tested system was measured at a wavelength of 405 nm and at a temperature of 22 °C. The measurement was conducted after 20 min (BChE) or 60 min (AChE) after adding all ingredients into a microplate. The blank sample contained Tris-HCl buffer instead of the tested compounds. All samples were analyzed in six independent replicates. The inhibitory activity of each enzyme was calculated with the use of following equation: Inhibition ability (%)=100−Ap−Abp×100/Ak−Ab where Ak is absorbance of control, Ab is the blank of the control, Ap is the absorbance of the sample, and Abp is the blank of the sample.

A short description of data set [2]: PAMPA GIT permeability assay. It counts as in vitro ADME. As to the method: as §1
Another data set in a line: physchem. The data set is classed as physicochemical. The conditions noted are these: for improvement in solubility: by amorphous inclusion complexes with HP-β-CD; for solubility at 24 h: thermodynamic from solid. On the procedure:
Concentrations of Hed and Het during solubility, dissolution rate, and permeability studies were measured by high-performance liquid chromatography with the DAD detector (HPLC-DAD). In this study, a Shimadzu Nexera (Shimadzu Corp., Kyoto, Japan) equipped with SCL-40 system controller; DGU-403 degassing unit; LC-40B XR solvent delivery module; SIL-40C XR auto sampler; CTO-40C column oven; SPD-M40 photo diode array detector, was used. For the stationary phase, a Dr. Maisch ReproSil-Pur Basic-C18 100 Å column, 5 µm particle size, 250 × 4.60 mm (Dr. Maisch, Ammerbuch-Entringen, Germany), was used. The mobile phase was methanol/0.1% acetic acid (65:35 v/v). The mobile phase was vacuum-filtered through a 0.45 µm nylon filter (Phenomenex, CA, USA). The experimental conditions were as follows: 0.9 mL·min^−1 flow rate, wavelength 280 nm for Hed and 288 nm for Het, and the column temperature at 30 °C. The injection volume differed depending on the assay. […] The method duration time was 10 min.
A total of 0.1 M HCl was obtained from the analytical weighed amount in accordance with the BASF SE recommendations. Phosphate buffer at pH 6.8 was prepared according to the following description: in a 1000 mL volumetric flask, we placed 250 mL of 0.2 N potassium dihydrogen phosphate solution, then added 112 mL of 0.2 N sodium hydroxide solution and filled the mixture up to 1000 mL with distilled water. High-quality pure water was prepared using a Direct-Q 3 UV purification system (Millipore, Molsheim, France, model Exil SA 67120).
An excess number of obtained systems and physical mixtures was placed in a 10 mL glass tube; then, 5.0 mL of medium (water, HCl 0.1 N or phosphate buffer (pH 6.8)) was added. All samples were mixed using a vortex mixer for 30 s and left at room temperature for 24 h. The obtained solutions were filtered through a 0.2 μm nylon membrane filter (Sigma-Aldrich, St. Louis, MO, USA) and analyzed for Hed and Het content using the developed and validated the HPLC method. The analysis was performed in triplicate.

The next data set has as its target T2, BChE (Homo sapiens, UniProt P06276).
T2 construct: purchased Sigma Aldrich, Germany
In words: Butyrylcholinesterase (BChE) inhibition assay. It counts as biochemical. As to the method: as §2

Details of data set [3]: method as in doi:10.1016/j.lwt.2019.03.059. The settings on record: cited from earlier work.

T2 sequence (P06276 29-602, species assumed): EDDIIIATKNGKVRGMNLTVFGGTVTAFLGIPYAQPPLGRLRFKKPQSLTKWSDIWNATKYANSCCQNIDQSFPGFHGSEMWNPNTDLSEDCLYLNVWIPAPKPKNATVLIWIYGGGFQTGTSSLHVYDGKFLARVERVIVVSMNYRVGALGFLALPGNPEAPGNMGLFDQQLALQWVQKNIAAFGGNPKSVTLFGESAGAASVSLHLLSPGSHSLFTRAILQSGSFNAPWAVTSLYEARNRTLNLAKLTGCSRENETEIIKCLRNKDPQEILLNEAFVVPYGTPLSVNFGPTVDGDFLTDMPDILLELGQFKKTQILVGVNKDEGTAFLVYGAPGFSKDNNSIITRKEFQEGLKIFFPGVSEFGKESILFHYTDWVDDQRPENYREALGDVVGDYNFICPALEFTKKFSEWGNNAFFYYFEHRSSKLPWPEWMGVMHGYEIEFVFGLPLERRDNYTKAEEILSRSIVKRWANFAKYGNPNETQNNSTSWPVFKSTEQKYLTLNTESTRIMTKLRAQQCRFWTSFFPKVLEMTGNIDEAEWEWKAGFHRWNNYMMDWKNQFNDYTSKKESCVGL

The term Papp denotes a coefficient for how fast a substance crosses the barrier. In general, solubility refers to the concentration that dissolves in the medium under given conditions. In the case of `COc1ccc([C@@H]2CC(=O)c3c(O)cc(O[C@@H]4O[C@H](CO[C@@H]5O[C@@H](C)[C@H](O)[C@@H](O)[C@H]5O)[C@@H](O)[C@H](O)[C@H]4O)cc3O2)cc1O` [Hed, hesperidin], the Papp at 4 h worked out at 0.558 ×10⁻⁶ cm/s in data set [1] (pH 7.4) and 0.0554 ×10⁻⁶ cm/s in data set [2] (PAMPA, pH 6.8). Further, the AChE inhibition at AChE was found to be 9.24 ± 0.81%. For the same compound, the “GIT PAMPA permeability, result in words” value in data set [2] (PAMPA) is reported as “poorly absorbed”. Besides, the improvement in solubility result in “physchem” is “over 1000 times”. Also, the solubility at 24 h in “physchem” (pH 6.8, aqueous buffer) is 9 ± 2 µg/mL (≈ 14.7 µM); in the data set “physchem” (simulated gastric fluid) it was 8 ± 3 µg/mL (≈ 13.1 µM); in “physchem” (water), 9 ± 1 µg/mL (≈ 14.7 µM). In addition, at BChE, the BChE inhibition was 13.86 ± 1.62%.

Take `COc1ccc([C@@H]2CC(=O)c3c(O)cc(O)cc3O2)cc1O` [Het, hesperetin]: the improved solubility is on record as 467 fold in data set [3] (Het complex with HP-β-CD) and 30 fold in data set [3] (Het complex with β-CD). Further, the Papp at 4 h in data set [1] (compound dissolved in DMSO, donor pH ≈ 7.4, 4 h, 37 °C, read-out: PAMPA BBB Papp) was 5.58 ×10⁻⁶ cm/s; in data set [2] (PAMPA, compound dissolved in DMSO, donor pH ≈ 6.8, 4 h, 37 °C, read-out: PAMPA GIT Papp), 9.61 ×10⁻⁶ cm/s. Further, the “BBB PAMPA permeability, result in words” value in data set [1] (passive diffusion) is “easily able to pass this biological barrier; also recorded: crosses the blood–brain barrier”. For the same compound, in data set [2] (passive diffusion), the “GIT PAMPA permeability, result in words” value was “readily absorbed; also recorded: well absorbed”. In the data set “physchem”, this compound registered an improvement in solubility of more than 2000 times. Further, the solubility at 24 h is 15 ± 0.2 µg/mL (≈ 49.6 µM) in the data set “physchem” (pH 6.8, aqueous buffer); 6 ± 0.1 µg/mL (≈ 19.8 µM) in the data set “physchem” (simulated gastric fluid); 8 ± 0.1 µg/mL (≈ 26.5 µM) in the data set “physchem” (water). The same compound had a BChE inhibition on BChE of 12.96 ± 3.15%.

(Values after PMC9000012, “Amorphous Inclusion Complexes: Molecular Interactions of Hesperidin and Hesperetin with HP-Β-CD and Their Biological Effects” (International Journal of Molecular Sciences, 2022).)
